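Protocol summary: plate cells (96-well), add compound at 5 concentrations, incubate 48 h, interpolate endpoints linearly. Here, GI50 denotes the concentration required for 50% inhibition of growth. TGI marks complete inhibition of growth.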
How the values were obtained:
Experiment in all cases: growth of human tumour cells (NCI), 48 h
[1] = tested on: M14 melanoma
[2] = tested on: HOP-62 NSCLC
[3] = tested on: K-562 leukemia
[4] = tested on: OVCAR-3 ovarian
[5] = tested on: PC-3 prostate
[6] = tested on: MDA-MB-231 breast
[7] = tested on: HCT-15 colon
[8] = tested on: EKVX NSCLC
[9] = tested on: HL-60(TB) leukemia
[10] = tested on: HCT-116 colon
[11] = tested on: SF-539 CNS
[12] = tested on: HCC-2998 colon
[13] = tested on: SK-MEL-2 melanoma
[14] = tested on: 786-0 renal
[15] = tested on: CAKI-1 renal
[16] = tested on: A549 NSCLC
[17] = tested on: LOX IMVI melanoma
[18] = tested on: UO-31 renal
[19] = tested on: NCI-H460 lung
[20] = tested on: SNB-19 CNS
[21] = tested on: HOP-92 NSCLC
[22] = tested on: U251 CNS
[23] = tested on: NCI/ADR-RES ovarian
[24] = tested on: RXF 393 renal
[25] = tested on: UACC-257 melanoma
[26] = tested on: BT-549 breast
[27] = tested on: HS 578T breast
[28] = tested on: MDA-MB-435
[29] = tested on: COLO 205 colon
[30] = tested on: RPMI-8226 leukemia
[31] = tested on: SN12C renal
[32] = tested on: KM12 colon
[33] = tested on: SK-OV-3 ovarian
[34] = tested on: SF-268 CNS
[35] = tested on: SR leukemia
[36] = tested on: MCF7 breast
[37] = tested on: T-47D breast
[38] = tested on: NCI-H522 lung
[39] = tested on: OVCAR-8 ovarian
[40] = tested on: SF-295 CNS
[41] = tested on: SNB-75 CNS
[42] = tested on: NCI-H226 lung
[43] = tested on: TK-10 renal
[44] = tested on: OVCAR-4 ovarian
[45] = tested on: DU-145 prostate
[46] = tested on: ACHN renal
[47] = tested on: SK-MEL-5 melanoma
[48] = tested on: MALME-3M melanoma
[49] = tested on: OVCAR-5 ovarian
[50] = tested on: MOLT-4 leukemia
[51] = tested on: IGROV1 ovarian
[52] = tested on: SK-MEL-28 melanoma
[53] = tested on: HT29 colon
[54] = tested on: UACC-62 melanoma
[55] = tested on: CCRF-CEM leukemia
[56] = tested on: SW-620 colon
[57] = tested on: A498 renal

## CC(=O)N(O)CCCCCNC(=O)CCC(=O)N(O)CCCCCNC(=O)CCC(=O)N(O)CCCCCN(CCCCCCCCCC[P+](c1ccccc1)(c1ccccc1)c1ccccc1)CCCCCCCCCC[P+](c1ccccc1)(c1ccccc1)c1ccccc1
[1]
  GI50: 4.11 µM
  TGI: 21.9 µM
[2]
  GI50: 3.46 µM
  TGI: 16.1 µM
[3]
  GI50: 1.47 µM
  TGI: 15.4 µM
[4]
  GI50: 4.22 µM
  TGI: 23.2 µM
[5]
  GI50: 2.95 µM
  TGI: 13.4 µM
[6]
  GI50: 4.13 µM
  TGI: 19.6 µM
[7]
  GI50: 14.6 µM
  TGI: 43.9 µM
[8]
  GI50: 1.35 µM
  TGI: 13 µM
[9]
  GI50: 2.04 µM
  TGI: 6.01 µM
[10]
  GI50: 2.93 µM
  TGI: 23.8 µM
[11]
  GI50: 2.8 µM
  TGI: 10.4 µM
[12]
  GI50: 3.45 µM
  TGI: 13.9 µM
[13]
  GI50: 2.61 µM
  TGI: 7.86 µM
[14]
  GI50: 7.1 µM
  TGI: 26.6 µM
[15]
  GI50: 10.8 µM
  TGI: 24.4 µM
[16]
  GI50: 3.47 µM
  TGI: > 100 µM
[17]
  GI50: 3.21 µM
  TGI: 10.2 µM
[18]
  GI50: 16 µM
  TGI: > 100 µM
[19]
  GI50: 2.38 µM
  TGI: 11.5 µM
[20]
  GI50: 3.09 µM
  TGI: 14.1 µM
[21]
  GI50: 1.49 µM
  TGI: 6.82 µM
[22]
  GI50: 2 µM
  TGI: 13 µM
[23]
  GI50: 31.3 µM
  TGI: > 100 µM
[24]
  GI50: 3.3 µM
  TGI: 14.5 µM
[25]
  GI50: 2.66 µM
  TGI: 10 µM
[26]
  GI50: 2.15 µM
  TGI: 9 µM
[27]
  GI50: 3.77 µM
  TGI: 30.8 µM
[28]
  GI50: 2.76 µM
  TGI: 11.3 µM
[29]
  GI50: 1.58 µM
  TGI: 3.55 µM
[30]
  GI50: 2.12 µM
  TGI: 9.63 µM
[31]
  GI50: 2.88 µM
  TGI: 11.1 µM
[32]
  GI50: 3.43 µM
  TGI: 21.1 µM
[33]
  GI50: 2.3 µM
  TGI: 6.15 µM
[34]
  GI50: 4.6 µM
  TGI: 26.4 µM
[35]
  GI50: 2.71 µM
  TGI: 11.2 µM
[36]
  GI50: 2.29 µM
  TGI: 10.8 µM
[37]
  GI50: 1.78 µM
  TGI: 8.85 µM
[38]
  GI50: 2.52 µM
  TGI: 10.7 µM
[39]
  GI50: 3.07 µM
  TGI: 14.8 µM
[40]
  GI50: 2.99 µM
  TGI: 14.1 µM
[41]
  GI50: 2.69 µM
  TGI: 11.4 µM
[42]
  GI50: 5.02 µM
  TGI: 23.9 µM
[43]
  GI50: 9 µM
  TGI: 34.2 µM
[44]
  GI50: 2.73 µM
  TGI: 17.5 µM
[45]
  GI50: 5.21 µM
  TGI: 25.4 µM
[46]
  GI50: 16.1 µM
  TGI: 69.9 µM
[47]
  GI50: 3.65 µM
  TGI: 15.8 µM
[48]
  GI50: 4.11 µM
  TGI: 20.3 µM
[49]
  GI50: 3.46 µM
  TGI: 15.5 µM
[50]
  GI50: 3.52 µM
  TGI: 18.9 µM
[51]
  GI50: 2.83 µM
  TGI: 16.8 µM
[52]
  GI50: 3.62 µM
  TGI: 18.3 µM
[53]
  GI50: 2.84 µM
  TGI: 11.4 µM
[54]
  GI50: 3.35 µM
  TGI: 15.3 µM
[55]
  GI50: 2.5 µM
  TGI: 23.4 µM
[56]
  GI50: 4.18 µM
  TGI: 16.5 µM
[57]
  GI50: 18.9 µM
  TGI: 81.2 µM

Source: PubChem BioAssay (NCI)
